Test results as given in US20050085509A1, “Piperidin-2-one derivative compounds and drugs containing these compounds as the active ingredient” (priority 2001, published 2005).

What was measured:
[1] = biological target: T1, recombinant human p38αMAP kinase (Homo sapiens, UniProt Q16539); assay: p38αMAP kinase inhibitory activity (2): ATF-2 phosphorylation, Alpha Screen; assay type: biochemical; details: 30° C., 30 minutes, read-out: IC50, inhibition of ATF-2 phosphorylation by p38αMAP kinase
T1 construct: purchased Upstate Biotechnology Inc. #14-251
T1 sequence (Q16539 whole entry): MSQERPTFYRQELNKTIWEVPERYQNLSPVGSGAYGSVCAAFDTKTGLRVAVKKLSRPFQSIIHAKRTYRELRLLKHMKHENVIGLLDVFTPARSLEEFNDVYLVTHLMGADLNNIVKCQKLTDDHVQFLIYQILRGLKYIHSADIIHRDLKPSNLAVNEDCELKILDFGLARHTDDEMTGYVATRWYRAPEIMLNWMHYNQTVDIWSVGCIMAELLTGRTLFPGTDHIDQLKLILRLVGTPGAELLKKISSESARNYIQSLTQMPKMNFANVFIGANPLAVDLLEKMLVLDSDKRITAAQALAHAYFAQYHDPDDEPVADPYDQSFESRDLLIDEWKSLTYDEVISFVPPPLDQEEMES
Method: (2) Study of p38αMAP Kinase Inhibitory Activity (2)
Using activation transcription factor 2 (hereinafter abbreviated as ATF-2) which is a substrate of p38αMAP kinase, the inhibition effect of the compound of the present invention on the ATF-2 phosphorylation by recombinant human p38αMAP kinase was examined.
A kinase buffer (25 mM Tris-HCl (pH 7.5), 5 mM β-glycerophosphate, 2 mM dithiothreitol, 0.1 mM Na3VO4, 10 mM MgCl2) containing recombinant human p38αMAP kinase (Upstate Biotechnology #14-251) (5 μL) was added to a 384-well plate for fluorescence measurement ([…] protein/well). […] Separately, 5 μL of a substrate mixture prepared with the kinase buffer (biotinylated ATF-2 (5 μg/mL) (Upstate Biotechnology, #14-432), adenosine triphosphate (90 μmol/L) (Sigma #FL-AAS) and anti-phosphorylated ATF-2 antibody (20-fold dilution) (Cell Signaling Technology, #9221L) were added and an enzyme reaction was carried out at 30° C. for 30 minutes. After completion of the reaction, the enzyme reaction was terminated by adding 5 μL of Hepes buffer containing 0.25% BSA and 100 mM EDTA. The amount of complex of phosphorylated ATF2 and anti-phosphorylated ATF2 generated by this reaction was measured using Alpha Screen™ Rabbit Detection kit (Packard #6760607). […]

THP-1 = assay: Inhibition activity against TNF-α production using human cell line THP-1; assay type: cell-based; details: 1.5 h, THP-1 cells, LPS stimulation, 90 minutes, ELISA, read-out: IC50, inhibition of LPS-induced TNF-α production
Method: (4) Inhibition Activity Against TNF-α Production Using Human Cell Line
Using THP-1, which is a human monocyte cell line, the inhibition effect of the compound of the present invention on the TNF-α production induced by lipopolyliposaccharide (LPS) stimulation was studied.
Each 50 μL of lipopolyliposaccharide (LPS; Difco #3120-25-0) prepared at the concentration of 40 ng/mL using RPMI-1640 medium containing 10% fetal calf serum (hereinafter abbreviated as RPMI-1640) and RPMI-1640 containing the compound of the present invention was added to a 96-well plate for tissue culture. […] After completion of the reaction, the culture medium supernatant was recovered and the amount of produced TNF-α was measured using an ELISA kit (Invitrogen, #850090192).
The inhibition activity against TNF-α production, which is the effect of the compound of the present invention, was calculated as an inhibition rate (%) by the following formula. Inhibition rate (%)={(AC−AX)/(AC−AB)}×100 • AB: Measured value without LPS induction • AC: Measured value with LPS induction in the absence of the compound • AX: Measured value with LPS induction in the presence of the compound

[2] = biological target: T1, recombinant human p38αMAP kinase; assay: p38αMAP kinase inhibitory activity (1): ATF-2 phosphorylation, Western blotting; assay type: biochemical; details: Western blotting with anti-phosphorylated ATF-2 antibody; FIG. 1
Source text: (1) Study of p38αMAP Kinase Inhibitory Activity (1)
Using activation transcription factor 2 (activating transcription factor 2; ATF-2, Cell Signaling Inc., #9224L) which is a substrate of p38αMAP kinase, the inhibitory effect of the compound of the present invention on the ATF-2 phosphorylation by recombinant human p38αMAP kinase (Upstate Biotechnology Inc., #14-251) was studied by the Western-blotting method using the anti-phosphorylated ATF-2 antibody (Cell Signaling Inc., #9221L). In other words, 10 μL of a solution of the compound of the present invention at a known concentration was added to 10 μL of the kinase buffer (Cell Signaling Inc., #9802) containing recombinant human p38αMAP kinase (100 ng/tube) and pre-incubated for 10 minutes at 30° C. Then, 20 μL of adenosine triphosphate (ATP)/ATF-2 mixture was added and after the incubation of 30 minutes at 30° C., 20 μL of SDS buffer (187.5 mM Tris/6% SDS/30% glycerol/150 mM DTT/0.03% bromophenol blue) was added to stop the enzyme reaction. After heating at 100° C. for 5 minutes, mixing and centrifugation were conducted. After re-mixing, 20 μL of the sample was subjected to an electrophoresis on SDS-PAGE gel (10-20%, Daiichi Pure Chemicals Co., Ltd.). […] After washing with TBS-T solution, phosphorylated ATF-2 was detected using Western blotting detection reagent (Amersham Pharmacia Biotech).

IC50 [1]: 42.9 nM
IC50 (THP-1): 14.5 nM
concentration at which ATF-2 phosphorylation by p38αMAP kinase was inhibited [2]: ≥ 0.3 µM
SMILES: O=C1CCC(Cc2ccc(F)cc2F)CN1c1c(Cl)cccc1Cl (stereo not drawn) [Example 1 (1), 1-(2,6-dichlorophenyl)-5-(2,4-difluorobenzyl)piperidin-2-one]
